Data as given in US20230322717A1, “SOLID FORM OF PYRAZINE SUBSTITUTED NICOTINAMIDE, AND PREPARATION AND USE THEREOF” (Shenzhen TargetRx, Inc., priority 2020, published 2023).
In brackets after ≈: the same amount, converted by molar mass.

Tests used:
Type in all cases: physicochemical
[1] = Stability study of the crystal form I of compound A and the crystal form I of compound A p-toluenesulfonate (HPLC, XRPD)
Experimental: A certain amount of samples of the crystal form I of compound A and the crystal form I of compound A p-toluenesulfonate (Batch No.: PTSA-A1) were placed in a stability test chamber, and kept at 40° C./75%RH and 60° C. for 7 days, respectively. The samples were tested by HPLC and XRPD at various time points.

[2] = Dynamic moisture adsorption and desorption analysis (DVS); details: for crystal form after DVS test (XRPD): before and after DVS test; for hygroscopicity (DVS): moisture range 0% to 90%
Experimental: The instrument model used for dynamic moisture adsorption and desorption analysis was IGA Sorp (Hidentity Isochema). The samples were measured in a gradient mode with a moisture range of 0% to 90%, wherein the humidity increment of each gradient was 10%.

[3] = Solubility study in SGF, FaSSIF and FeSSIF (HPLC of filtrate, XRPD of solid); details: for Crystal form: XRPD of solid
Experimental: The solubilities of the crystal form I of compound A and the crystal form I of compound A p-toluenesulfonate in SGF (simulated gastric fluid), FaSSIF (fasted state simulated intestinal fluid) and FeSSIF (fed state simulated intestinal fluid) were studied.
The solubilities of samples in SGF, FaSSIF and FeSSIF at 37° C. for 24 hours were determined. 40 mg of the sample was placed in a sample bottle, and 1.5 mL of solvent was added. The mixture was mixed well, and shaken on a shaker at 200 rpm for 24 hours. The suspension was filtered at 0.5, 2 and 24 hours. The filtrate was analyzed by HPLC, and the solid was tested by XRPD.

[4] = Solubility study of the starting material (the crystal form I of compound A) in different solvents
Experimental: About 2 mg of the starting material was weighed and added into a sample bottle, and different solvents were added respectively, until the starting material was dissolved.

[5] = Stability study of the crystal form VI of compound A (high temperature, high humidity, light)

Q: With `Cc1ccc(S(=O)(=O)O)cc1.O=C(Nc1ccc(OC(F)(F)Cl)cc1)c1cnc(N2CC[C@@H](F)C2)c(-c2cnccn2)c1` [(R)-N-(4-(chlorodifluoromethoxy)phenyl)-6-(3-fluoropyrrolidin-1-yl)-5-(pyrazin-2-yl)nicotinamide p-toluenesulfonate] as the compound, how does the “crystal form stability (XRPD)” value ([1]; 7 days at 40° C./75% RH and 60° C.) read?
A: remained unchanged

Q: What about the water absorption ([2]; 0-80%RH) of the same compound?
A: about 0.39%

Q: And the water absorption ([2]; 0-90%RH)?
A: about 0.61%

Q: And the “crystal form after DVS test (XRPD)” value [2]?
A: not changed

Q: What about the “hygroscopicity (DVS)” value [2] of the same compound?
A: slightly hygroscopic

Q: And the “crystal form of the undissolved solid (XRPD)” value ([3]; FaSSIF and FeSSIF for 0.5 hours)?
A: changed

Q: What about the “solubility compared with the other form” value ([3]; FaSSIF and FeSSIF vehicles, 24 hours, 37° C.) of the same compound?
A: higher solubility than that of the free base

Q: What about the “crystal form of the undissolved solid (XRPD)” value ([3]; SGF for 24 hours) of the same compound?
A: changed

Q: And the “dependence of solubility on pH” value ([3]; SGF, FaSSIF, FeSSIF, 37° C.)?
A: affected by pH value

Q: What about the “solubility in a solution with a higher pH value” ([3]; after 2 hours) of the same compound?
A: higher solubility

Q: Which results are given for `O=C(Nc1ccc(OC(F)(F)Cl)cc1)c1cnc(N2CC[C@@H](F)C2)c(-c2cnccn2)c1` [The crystal form I of compound A]?
A: Purity ([1]; 40° C./75% RH, Day 0, HPLC): 96.1%; Purity ([1]; 40° C./75% RH, Day 3, HPLC): 97.1%; Crystal form ([1]; 40° C./75% RH, Day 3, XRPD): Initial crystal form; Purity ([1]; 40° C./75% RH, Day 7, HPLC): 97.1%; Crystal form ([1]; 40° C./75% RH, Day 7, XRPD): Initial crystal form; Purity ([1]; 60° C., Day 0, HPLC): 96.1%; Purity ([1]; 60° C., Day 3, HPLC): 96.7%; Crystal form ([1]; 60° C., Day 3, XRPD): Initial crystal form; Purity ([1]; 60° C., Day 7, HPLC): 97.1%; Crystal form ([1]; 60° C., Day 7, XRPD): Initial crystal form; Solubility ([3]; FaSSIF, 37° C., 0.5 h): 4.2 µg/mL (≈ 9.05 µM); pH ([3]; FaSSIF, 37° C., 0.5 h): 6.62; Crystal form ([3]; FaSSIF, 37° C., 0.5 h): Initial crystal form; Solubility ([3]; FaSSIF, 37° C., 2 h): 4.8 µg/mL (≈ 10.3 µM); pH ([3]; FaSSIF, 37° C., 2 h): 6.63; Crystal form ([3]; FaSSIF, 37° C., 2 h): Changed; Solubility ([3]; FaSSIF, 37° C., 24 h): 4.3 µg/mL (≈ 9.27 µM); pH ([3]; FaSSIF, 37° C., 24 h): 6.63; Crystal form ([3]; FaSSIF, 37° C., 24 h): Changed; Solubility ([3]; FeSSIF, 37° C., 0.5 h): 220 µg/mL (≈ 474 µM); pH ([3]; FeSSIF, 37° C., 0.5 h): 5.04; Crystal form ([3]; FeSSIF, 37° C., 0.5 h): Initial crystal form; Solubility ([3]; FeSSIF, 37° C., 2 h): 180 µg/mL (≈ 388 µM); pH ([3]; FeSSIF, 37° C., 2 h): 5.05; Crystal form ([3]; FeSSIF, 37° C., 2 h): Changed; Solubility ([3]; FeSSIF, 37° C., 24 h): 57 µg/mL (≈ 123 µM); pH ([3]; FeSSIF, 37° C., 24 h): 5.02; Crystal form ([3]; FeSSIF, 37° C., 24 h): Changed; Solubility ([3]; SGF, 37° C., 0.5 h): 120 µg/mL (≈ 259 µM); pH ([3]; SGF, 37° C., 0.5 h): 1.24; Crystal form ([3]; SGF, 37° C., 0.5 h): Initial Crystal form; Solubility ([3]; SGF, 37° C., 2 h): 63 µg/mL (≈ 136 µM); pH ([3]; SGF, 37° C., 2 h): 1.24; Crystal form ([3]; SGF, 37° C., 2 h): Changed; Solubility ([3]; SGF, 37° C., 24 h): 46 µg/mL (≈ 99.2 µM); pH ([3]; SGF, 37° C., 24 h): 1.23; Crystal form ([3]; SGF, 37° C., 24 h): Changed

Q: Which water absorption ([2]; 0-80%RH) does the source give for `CS(=O)(=O)O.O=C(Nc1ccc(OC(F)(F)Cl)cc1)c1cnc(N2CC[C@@H](F)C2)c(-c2cnccn2)c1` [crystal form I of compound A mesylate, (R)-N-(4-(chlorodifluoromethoxy)phenyl)-6-(3-fluoropyrrolidin-1-yl)-5-(pyrazin-2-yl)nicotinamide mesylate] here?
A: about 3.6%

Q: And the water absorption ([2]; 0-90%RH)?
A: about 40.3%

Q: And the “crystal form after DVS test (XRPD)” value [2]?
A: not changed

Q: And the “hygroscopicity (DVS)” value [2]?
A: hygroscopic

Q: Which “Solubility” value ([4]; solvent: 2-Butanone) does the source give for `O=C(Nc1ccc(OC(F)(F)Cl)cc1)c1cnc(N2CC[C@@H](F)C2)c(-c2cnccn2)c1` [the crystal form I of compound A] here?
A: ~73670 µg/mL (≈ 159000 µM)

Q: And the “Solubility” value ([4]; solvent: Acetone)?
A: ~77000 µg/mL (≈ 166000 µM)

Q: And the “Solubility” value ([4]; solvent: Acetonitrile)?
A: ~53250 µg/mL (≈ 115000 µM)

Q: And the “Solubility” value ([4]; solvent: Ethanol)?
A: ~1310 µg/mL (≈ 2820 µM)

Q: And the “Solubility” value ([4]; solvent: Ethyl Acetate)?
A: ~49250 µg/mL (≈ 106000 µM)

Q: What about the “Solubility” value ([4]; solvent: Isobutanol) of the same compound?
A: ~730 µg/mL (≈ 1570 µM)

Q: And the “Solubility” value ([4]; solvent: Isopropyl Acetate)?
A: ~22100 µg/mL (≈ 47600 µM)

Q: What about the “Solubility” value ([4]; solvent: Isopropyl Alcohol) of the same compound?
A: ~920 µg/mL (≈ 1980 µM)

Q: What about the “Solubility” value ([4]; solvent: Methanol) of the same compound?
A: ~11830 µg/mL (≈ 25500 µM)

Q: What about the “Solubility” value ([4]; solvent: Methyl Tert-Butyl Ether) of the same compound?
A: ~2800 µg/mL (≈ 6040 µM)

Q: What about the “Solubility” value ([4]; solvent: Tetrahydrofuran) of the same compound?
A: ~121000 µg/mL (≈ 261000 µM)

Q: And the “Solubility” value ([4]; solvent: Toluene)?
A: ~1230 µg/mL (≈ 2650 µM)

Q: And the “Solubility (mg/mL)” value ([4]; solvent: Water)?
A: <<0.55 mg/mL

Q: With `O=C(Nc1ccc(OC(F)(F)Cl)cc1)c1cnc(N2CC[C@@H](F)C2)c(-c2cnccn2)c1` [the crystal form VI of compound A] as the compound, how does the Appearance ([5]; 0 day) read?
A: Off-white powder

Q: What about the Content ([5]; 0 day) of the same compound?
A: 99.40%

Q: What about the Crystal form ([5]; 0 day) of the same compound?
A: The crystal form VI

Q: What about the Impurity content ([5]; 0 day) of the same compound?
A: 0.87%

Q: And the Appearance ([5]; 25° C./92.5%RH, 10 days)?
A: Off-white powder

Q: And the Content ([5]; 25° C./92.5%RH, 10 days)?
A: 98.40%

Q: And the Crystal form ([5]; 25° C./92.5%RH, 10 days)?
A: The crystal form VI

Q: And the Hygroscopic weight gain ([5]; 25° C./92.5%RH, 10 days)?
A: 0.34%

Q: And the Impurity content ([5]; 25° C./92.5%RH, 10 days)?
A: 0.80%

Q: And the Appearance ([5]; 25° C./92.5%RH, 30 days)?
A: Off-white powder

Q: What about the Content ([5]; 25° C./92.5%RH, 30 days) of the same compound?
A: 98.80%

Q: And the Crystal form ([5]; 25° C./92.5%RH, 30 days)?
A: The crystal form VI

Q: What about the Hygroscopic weight gain ([5]; 25° C./92.5%RH, 30 days) of the same compound?
A: 2.72%

Q: And the Impurity content ([5]; 25° C./92.5%RH, 30 days)?
A: 0.85%

Q: What about the Appearance ([5]; 40° C./75%RH, 10 days) of the same compound?
A: Off-white powder

Q: What about the Content ([5]; 40° C./75%RH, 10 days) of the same compound?
A: 98.40%

Q: And the Crystal form ([5]; 40° C./75%RH, 10 days)?
A: The crystal form VI

Q: What about the Hygroscopic weight gain ([5]; 40° C./75%RH, 10 days) of the same compound?
A: 1.26%

Q: What about the Impurity content ([5]; 40° C./75%RH, 10 days) of the same compound?
A: 0.79%

Q: What about the Appearance ([5]; 40° C./75%RH, 30 days) of the same compound?
A: Off-white powder

Q: And the Content ([5]; 40° C./75%RH, 30 days)?
A: 101.40%

Q: What about the Crystal form ([5]; 40° C./75%RH, 30 days) of the same compound?
A: The crystal form VI

Q: What about the Hygroscopic weight gain ([5]; 40° C./75%RH, 30 days) of the same compound?
A: 1.26%

Q: And the Impurity content ([5]; 40° C./75%RH, 30 days)?
A: 0.80%

Q: And the Appearance ([5]; 60° C., 10 days)?
A: Off-white powder

Q: And the Content ([5]; 60° C., 10 days)?
A: 99.90%

Q: What about the Crystal form ([5]; 60° C., 10 days) of the same compound?
A: The crystal form VI

Q: What about the Impurity content ([5]; 60° C., 10 days) of the same compound?
A: 0.81%

Q: And the Appearance ([5]; 60° C., 30 days)?
A: Off-white powder

Q: And the Content ([5]; 60° C., 30 days)?
A: 96.90%

Q: What about the Crystal form ([5]; 60° C., 30 days) of the same compound?
A: The crystal form VI

Q: What about the Impurity content ([5]; 60° C., 30 days) of the same compound?
A: 0.84%

Q: And the Appearance ([5]; Light, 10 days)?
A: Off-white powder

Q: What about the Content ([5]; Light, 10 days) of the same compound?
A: 99.70%

Q: What about the Crystal form ([5]; Light, 10 days) of the same compound?
A: The crystal form VI

Q: And the Impurity content ([5]; Light, 10 days)?
A: 0.85%
